The supplement of paper PMC10307832

The cell lines below were run with O=C(c1cc(Cc2n[nH]c(=O)c3ccccc23)ccc1F)N1CCN(C(=O)C2CC2)CC1 [Olaparib] + Nc1ncn([C@H]2C[C@H](O)[C@@H](CO)O2)c(=O)n1 [Decitabine] (partner 2 µM) (assay: relative viability (nuclei count vs DMSO), 5 days (fraction); higher = more cells survive). Conditions: first compound 0.253 µM.
In short: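 Relative viability was taken as the ratio of nuclei in treated wells to nuclei in vehicle wells. Lung cancer cell lines in 1536-well plates received compounds by pin tool one day after seeding, either one drug alone or a fixed anchor-drug dose plus five library-drug doses (not always all listed) in √10 steps. Nuclei were counted on 4× images after 5 days of treatment, and values are medians of duplicate plates.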

Question: For LCLC-97TM1, which relative viability is on record?
Answer: 0.143

Question: Which relative viability does the source give for LCLC-103H here?
Answer: 0.727

Question: How did the relative viability turn out when LK-2 was run?
Answer: 0.254

Question: LOU-NH91 was tested. Which relative viability did it give?
Answer: 0.774

Question: How did the relative viability turn out when LU99A was run?
Answer: 0.753

Question: LXF-289 was tested. Which relative viability did it give?
Answer: 0.302

Question: NCI-H522 was tested. Which relative viability did it give?
Answer: 0.645

Question: How did the relative viability turn out when NCI-H727 was run?
Answer: 0.858

Question: NCI-H1648 was tested. Which relative viability did it give?
Answer: 0.384

Question: Which relative viability does the source give for NCI-H1650 here?
Answer: 0.39

Question: NCI-H2170 was tested. Which relative viability did it give?
Answer: 0.369

Question: How did the relative viability turn out when NCI-H2342 was run?
Answer: 0.606

Question: For SW 900, which relative viability is on record?
Answer: 0.331

Same assay, conditions: first compound 2.53 µM

Question: For 201T, which relative viability is on record?
Answer: 0.611

Question: A549 was tested. Which relative viability did it give?
Answer: 0.0622

Question: For A-427, which relative viability is on record?
Answer: 0.483

Question: With ABC-1 as the cell line, how does the relative viability read?
Answer: 0.836

Question: How did the relative viability turn out when BEN was run?
Answer: 0.639

Question: How did the relative viability turn out when COR-L23 was run?
Answer: 0.216

Question: COR-L 105 was tested. Which relative viability did it give?
Answer: 0.52

Question: For ChaGo-K-1, which relative viability is on record?
Answer: 0.355

Question: EKVX was tested. Which relative viability did it give?
Answer: 0.337

Question: How did the relative viability turn out when EMC-BAC-2 was run?
Answer: 0.669

Question: EPLC-272H was tested. Which relative viability did it give?
Answer: 0.302

Question: With H3255 as the cell line, how does the relative viability read?
Answer: 0.621

Question: For HARA, which relative viability is on record?
Answer: 0.396

Question: HCC-15 was tested. Which relative viability did it give?
Answer: 0.463

Question: With HCC-44 as the cell line, how does the relative viability read?
Answer: 0.783

Question: With HCC-78 as the cell line, how does the relative viability read?
Answer: 0.508

Question: For HCC-366, which relative viability is on record?
Answer: 0.0931

Question: With HCC-827 as the cell line, how does the relative viability read?
Answer: 0.291

Question: With HOP-62 as the cell line, how does the relative viability read?
Answer: 0.234

Question: LC-2-ad was tested. Which relative viability did it give?
Answer: 0.557

Question: For LCLC-97TM1, which relative viability is on record?
Answer: 0.165

Question: Which relative viability does the source give for LCLC-103H here?
Answer: 0.674

Question: For LK-2, which relative viability is on record?
Answer: 0.271

Question: For LOU-NH91, which relative viability is on record?
Answer: 0.783

Question: How did the relative viability turn out when LU99A was run?
Answer: 0.601

Question: LXF-289 was tested. Which relative viability did it give?
Answer: 0.272

Question: For NCI-H522, which relative viability is on record?
Answer: 0.724

Question: Which relative viability does the source give for NCI-H727 here?
Answer: 0.893

Question: For NCI-H1650, which relative viability is on record?
Answer: 0.32

Question: With NCI-H2170 as the cell line, how does the relative viability read?
Answer: 0.277

Question: How did the relative viability turn out when NCI-H2342 was run?
Answer: 0.663

Question: Which relative viability does the source give for SW 900 here?
Answer: 0.413

Same assay, conditions: first compound 8 µM

Question: Which relative viability does the source give for 201T here?
Answer: 0.632

Question: Which relative viability does the source give for A549 here?
Answer: 0.0462

Question: A-427 was tested. Which relative viability did it give?
Answer: 0.404

Question: ABC-1 was tested. Which relative viability did it give?
Answer: 0.718

Question: For BEN, which relative viability is on record?
Answer: 0.641

Question: With COR-L23 as the cell line, how does the relative viability read?
Answer: 0.199

Question: COR-L 105 was tested. Which relative viability did it give?
Answer: 0.512

Question: For ChaGo-K-1, which relative viability is on record?
Answer: 0.329

Question: Which relative viability does the source give for EKVX here?
Answer: 0.276

Question: EMC-BAC-2 was tested. Which relative viability did it give?
Answer: 0.599

Question: Which relative viability does the source give for EPLC-272H here?
Answer: 0.329

Question: H3255 was tested. Which relative viability did it give?
Answer: 0.444

Question: With HARA as the cell line, how does the relative viability read?
Answer: 0.338

Question: Which relative viability does the source give for HCC-15 here?
Answer: 0.344

Question: Which relative viability does the source give for HCC-44 here?
Answer: 0.802

Question: For HCC-78, which relative viability is on record?
Answer: 0.455

Question: HCC-366 was tested. Which relative viability did it give?
Answer: 0.113

Question: How did the relative viability turn out when HCC-827 was run?
Answer: 0.231

Question: HOP-62 was tested. Which relative viability did it give?
Answer: 0.178

Question: With LC-2-ad as the cell line, how does the relative viability read?
Answer: 0.509

Question: Which relative viability does the source give for LCLC-97TM1 here?
Answer: 0.178

Question: How did the relative viability turn out when LCLC-103H was run?
Answer: 0.626

Question: With LK-2 as the cell line, how does the relative viability read?
Answer: 0.184

Question: Which relative viability does the source give for LOU-NH91 here?
Answer: 0.769

Question: Which relative viability does the source give for LU99A here?
Answer: 0.566

Question: For LXF-289, which relative viability is on record?
Answer: 0.232

Question: Which relative viability does the source give for NCI-H522 here?
Answer: 0.598

Question: NCI-H727 was tested. Which relative viability did it give?
Answer: 0.805

Question: NCI-H1648 was tested. Which relative viability did it give?
Answer: 0.44

Question: With NCI-H1650 as the cell line, how does the relative viability read?
Answer: 0.354

Question: NCI-H2170 was tested. Which relative viability did it give?
Answer: 0.253

Question: Which relative viability does the source give for NCI-H2342 here?
Answer: 0.619

Question: Which relative viability does the source give for SW 900 here?
Answer: 0.355
